Experimental data reported in PubChem BioAssay AID248 (DTP/NCI, 2004).
Toxic doses and inconclusive results are not listed. No stated cut-off is given here; in the data, active means T/C of 150% or more; inactive means T/C below 125%.

Test system: L1210 leukemia ip in BDF1 mice, survival T/C
Assay: NCI In Vivo Anticancer Drug Screen. Data for tumor model L1210 Leukemia (intraperitoneal) in B6D2F1 (BDF1) mice
Conditions: endpoint: mean survival time, higher = longer survival
In short: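 Transplantable tumor model; survival measured in treated vs vehicle control mice. Value = treated/control.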

[1] = dose: 100.0 mg/kg/injection, schedule: Q04DX003 (ip), vehicle: saline with Tween-80
[2] = dose: 200.0 mg/kg/injection, schedule: Q04DX003 (ip), vehicle: saline with Tween-80
[3] = dose: 100.0 mg/kg/injection, schedule: Q04DX003 (ip), vehicle: Klucel (hydroxypropylcellulose) (HPC)
[4] = dose: 100.0 mg/kg/injection, schedule: Q01DX001 (ip), vehicle: saline
[5] = dose: 200.0 mg/kg/injection, schedule: Q01DX001 (ip), vehicle: saline
[6] = dose: 400.0 mg/kg/injection, schedule: Q01DX001 (ip), vehicle: saline
[7] = dose: 400.0 mg/kg/injection, schedule: Q04DX003 (ip), vehicle: saline with Tween-80
[8] = dose: 100.0 mg/kg/injection, schedule: Q01DX009 (ip), vehicle: saline
[9] = dose: 200.0 mg/kg/injection, schedule: Q01DX009 (ip), vehicle: saline
[10] = dose: 100.0 mg/kg/injection, schedule: Q04DX002 (ip), vehicle: Klucel (hydroxypropylcellulose) (HPC)
[11] = dose: 200.0 mg/kg/injection, schedule: Q04DX002 (ip), vehicle: Klucel (hydroxypropylcellulose) (HPC)
[12] = dose: 400.0 mg/kg/injection, schedule: Q04DX002 (ip), vehicle: Klucel (hydroxypropylcellulose) (HPC)

Measured: T/C

Cc1ccc(CO)cc1C
inactive: dose: 50.0 mg/kg/injection, schedule: Q04DX003 (ip), vehicle: saline with Tween-80 95 % of control | [1] 104 % of control | [2] 93 % of control

COC(=O)C1C=C2c3cccc4[nH]cc(c34)CC2N(C#N)C1 (stereo not given)
inactive: dose: 25.0 mg/kg/injection, schedule: Q04DX003 (ip), vehicle: alcohol 91 % of control | dose: 50.0 mg/kg/injection, schedule: Q04DX003 (ip), vehicle: alcohol 100 % of control | dose: 100.0 mg/kg/injection, schedule: Q04DX003 (ip), vehicle: alcohol 96 % of control | dose: 200.0 mg/kg/injection, schedule: Q04DX003 (ip), vehicle: alcohol 93 % of control | dose: 400.0 mg/kg/injection, schedule: Q04DX003 (ip), vehicle: alcohol 94 % of control

CC(C)(C)c1ccc(CC#N)cc1
inactive: dose: 25.0 mg/kg/injection, schedule: Q04DX003 (ip), vehicle: Klucel (hydroxypropylcellulose) (HPC) 97 % of control | dose: 50.0 mg/kg/injection, schedule: Q04DX003 (ip), vehicle: Klucel (hydroxypropylcellulose) (HPC) 94 % of control | [3] 90 % of control

O=C(O)CCc1ccc(-c2cccc([N+](=O)[O-])c2)o1
inactive: dose: 100.0 mg/kg/injection, schedule: Q04DX002 (ip), vehicle: saline with Tween-80 102 % of control | dose: 200.0 mg/kg/injection, schedule: Q04DX002 (ip), vehicle: saline with Tween-80 105 % of control | dose: 400.0 mg/kg/injection, schedule: Q04DX002 (ip), vehicle: saline with Tween-80 98 % of control

O=C(OCC1OCOC1C1OCOC1COC(=O)c1ccccc1)c1ccccc1 (stereo not given)
inactive: [4] 96 % of control | [5] 94 % of control | [6] 88 % of control

CC(=O)Nc1cc(C)c(Cl)cc1Cl
inactive: dose: 31.25 mg/kg/injection, schedule: Q01DX009 (ip), vehicle: saline 103 % of control | dose: 62.5 mg/kg/injection, schedule: Q01DX009 (ip), vehicle: saline 103 % of control | dose: 100.0 mg/kg/injection, schedule: Q04DX003 (ip), vehicle: saline 100 % of control | dose: 125.0 mg/kg/injection, schedule: Q01DX009 (ip), vehicle: saline 102 % of control | dose: 200.0 mg/kg/injection, schedule: Q04DX003 (ip), vehicle: saline 105 % of control | dose: 400.0 mg/kg/injection, schedule: Q04DX003 (ip), vehicle: saline 101 % of control

CS(=O)(=O)OCCCN(CCCOS(C)(=O)=O)c1ccc(C=Nc2ccc(-c3csc(COc4ccc(Br)cc4Br)n3)cc2)cc1
inactive: [1] 91 % of control | [2] 88 % of control | [7] 86 % of control

c1ccc(-c2nc3ccccc3s2)nc1
inactive: [3] 109 % of control | dose: 200.0 mg/kg/injection, schedule: Q04DX003 (ip), vehicle: Klucel (hydroxypropylcellulose) (HPC) 98 % of control | dose: 400.0 mg/kg/injection, schedule: Q04DX003 (ip), vehicle: Klucel (hydroxypropylcellulose) (HPC) 88 % of control

O=C(O)c1ccc(SCc2ccccc2)cc1
inactive: dose: 100.0 mg/kg/injection, schedule: Q01DX009 (ip), vehicle: Klucel (hydroxypropylcellulose) (HPC) 103 % of control | dose: 200.0 mg/kg/injection, schedule: Q01DX009 (ip), vehicle: Klucel (hydroxypropylcellulose) (HPC) 101 % of control | dose: 400.0 mg/kg/injection, schedule: Q01DX009 (ip), vehicle: Klucel (hydroxypropylcellulose) (HPC) 93 % of control

N#CC(c1ccc(Cl)cc1)C(C/C(=N/Nc1ccc([N+](=O)[O-])cc1[N+](=O)[O-])c1ccccc1)c1ccccc1 (stereo not given)
inactive: dose: 25.0 mg/kg/injection, schedule: Q01DX001 (ip), vehicle: saline with Tween-80 91 % of control | dose: 50.0 mg/kg/injection, schedule: Q01DX001 (ip), vehicle: saline with Tween-80 93 % of control | dose: 100.0 mg/kg/injection, schedule: Q01DX001 (ip), vehicle: saline with Tween-80 95 % of control

COP(=NC(C)=O)(OC)OC
inactive: dose: 100.0 mg/kg/injection, schedule: Q01DX009 (ip), vehicle: saline with Tween-80 101 % of control | [1] 97 % of control | dose: 200.0 mg/kg/injection, schedule: Q01DX009 (ip), vehicle: saline with Tween-80 101 % of control | [2] 104 % of control | dose: 400.0 mg/kg/injection, schedule: Q01DX009 (ip), vehicle: saline with Tween-80 102 % of control | [7] 106 % of control

O=C1NC(=O)C2C3OC(C(Br)C3Br)C12 (stereo not given)
inactive: dose: 100.0 mg/kg/injection, schedule: Q01DX009 (ip), vehicle: acetone 86 % of control | [1] 93 % of control | dose: 200.0 mg/kg/injection, schedule: Q01DX009 (ip), vehicle: acetone 86 % of control | [2] 108 % of control | dose: 400.0 mg/kg/injection, schedule: Q01DX009 (ip), vehicle: acetone 88 % of control | [7] 95 % of control

N#C/C(=C\c1cccc([N+](=O)[O-])c1)c1ccccc1
inactive: dose: 100.0 mg/kg/injection, schedule: Q01DX001 (ip), vehicle: Klucel (hydroxypropylcellulose) (HPC) 97 % of control | dose: 200.0 mg/kg/injection, schedule: Q01DX001 (ip), vehicle: Klucel (hydroxypropylcellulose) (HPC) 101 % of control | dose: 400.0 mg/kg/injection, schedule: Q01DX001 (ip), vehicle: Klucel (hydroxypropylcellulose) (HPC) 94 % of control

CCC[CH2][Sn]([CH2]C)([CH2]C)[O]C(C)=O
inactive: dose: 5.0 mg/kg/injection, schedule: Q01DX001 (ip), vehicle: saline with Tween-80 90 % of control | dose: 10.0 mg/kg/injection, schedule: Q01DX001 (ip), vehicle: saline with Tween-80 93 % of control

Cc1cccc(C)c1NC(=O)C[N+](C)(C)N
inactive: dose: 100.0 mg/kg/injection, schedule: Q04DX002 (ip), vehicle: saline 94 % of control | dose: 200.0 mg/kg/injection, schedule: Q04DX002 (ip), vehicle: saline 94 % of control

O=C(O)C1C(Cl)C(Cl)C1C(=O)O (stereo not given)
inactive: dose: 75.0 mg/kg/injection, schedule: Q01DX001 (ip), vehicle: saline 104 % of control | dose: 150.0 mg/kg/injection, schedule: Q01DX001 (ip), vehicle: saline 101 % of control | dose: 300.0 mg/kg/injection, schedule: Q01DX001 (ip), vehicle: saline 96 % of control

Clc1c(Cl)c(/C=N/Nc2ccccc2)c(Cl)c(Cl)c1/C=N\Nc1ccccc1
inactive: dose: 50.0 mg/kg/injection, schedule: Q01DX001 (ip), vehicle: saline 101 % of control | [4] 95 % of control | [8] 98 % of control | [5] 92 % of control | [9] 96 % of control | [6] 95 % of control | dose: 400.0 mg/kg/injection, schedule: Q01DX009 (ip), vehicle: saline 96 % of control

O=C(O)c1ccc2ccccc2c1C(=O)c1ccc(F)cc1
inactive: [10] 101 % of control | dose: 100.0 mg/kg/injection, schedule: Q04DX003 (ip), vehicle: other 113 % of control | [11] 96 % of control | dose: 200.0 mg/kg/injection, schedule: Q04DX003 (ip), vehicle: other 97 % of control | [12] 92 % of control | dose: 400.0 mg/kg/injection, schedule: Q04DX003 (ip), vehicle: other 97 % of control

C=CC(C)C(C)CC (stereo not given)
inactive: dose: 50.0 mg/kg/injection, schedule: Q01DX001 (ip), vehicle: carboxymethylcellulose (CMC) 104 % of control | dose: 100.0 mg/kg/injection, schedule: Q01DX001 (ip), vehicle: carboxymethylcellulose (CMC) 95 % of control | dose: 200.0 mg/kg/injection, schedule: Q01DX001 (ip), vehicle: carboxymethylcellulose (CMC) 93 % of control | dose: 400.0 mg/kg/injection, schedule: Q01DX001 (ip), vehicle: carboxymethylcellulose (CMC) 101 % of control

O=C(O)C(Br)CN1C(=O)c2ccccc2C1=O (stereo not given)
inactive: dose: 50.0 mg/kg/injection, schedule: Q01DX009 (ip), vehicle: saline 91 % of control | [8] 95 % of control | [9] 91 % of control

Cc1nc(N(C)CC(=O)O)ncc1C(=O)O
inactive: [10] 91 % of control | [11] 91 % of control | [12] 94 % of control
